The assay relates to CEM cells HIV-1 protection, formazan growth assay. Description: NCI AIDS Antiviral Assay. The note with it: for IC50: measured here: growth of uninfected CEM cells. Put shortly:
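Protection of CEM cells against HIV-1 was scored from cell growth (soluble formazan) across five concentrations, with parallel uninfected cells. Lack of protection may reflect toxicity.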

The source made the active and inactive calls.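 How the source made its calls: active means compounds giving half or more protection of infected cells from virus-caused growth loss, again on retest; inactive means the rest.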

In general, EC50 refers to the concentration that produces a half-maximal response. As a reminder, the IC50 is the concentration that gives 50% inhibition. Take `Cc1[nH]c(=O)c2oc3cc4ccccc4cc3c2c1C(=O)O`: the EC50 was above 200 µM and the IC50 was above 200 µM.

Turning to `CC(=O)c1sc2c(c1OC(=O)c1ccc(Cl)cc1Cl)c(=O)n(-c1ccccc1)c(=S)n2-c1ccccc1`, the EC50 was above 200 µM and the IC50 stood at 0.0631 µM. The corresponding values for `CCCNC(=O)CNC(=O)c1ccccc1SC(=O)CCCC[n+]1ccccc1` are 8.32 µM and 112 µM. In the case of `O=C1CC(NC(=O)C(F)(F)F)c2c1csc2Br` (centres undefined), the EC50 is above 200 µM and the IC50 was 115 µM. `O=C(NCCN(CCNC(=O)c1cccc(=O)n1O)CCN(CCNC(=O)c1cccc(=O)n1O)CCNC(=O)c1cccc(=O)n1O)c1cccc(=O)n1O`: the EC50 is above 200 µM and the IC50 is above 200 µM. As to `Cc1cc(C)nc(NS(=O)(=O)c2ccc(NNc3c4ccccc4nc4c(C(=O)Nc5ccc(S(N)(=O)=O)cc5)cccc34)cc2)n1`, the EC50 is above 200 µM and the IC50 was 11 µM. The like results for `COC(=O)C1ON(C(=O)c2ccccc2)C(C)C2OC12` (centres undefined) were, in that order, above 324 µM and above 324 µM.

For the compound `Cc1cc2nc3ccc(=[N+](C)C)cc-3sc2cc1N`, the EC50 is above 117 µM and the IC50 was found to be 0.676 µM.

Turning to `COc1cc(-c2nnc3n2NC=C(C(=O)O)S3)cc(OC)c1OC`, the EC50 is above 257 µM and the IC50 is above 257 µM. With `COC(=S)SSC(=S)NCCNC(=S)SSC(=S)OC`, the EC50 was above 200 µM and the IC50 was 9.55 µM. With `Cn1c(=O)c2c(nc(NCCCCl)n2CC(=O)O)n(C)c1=O`, the EC50 was above 200 µM and the IC50 was above 200 µM.

As for `Cc1csc(-n2nc(C)cc2C)n1`, the EC50 was above 200 µM and the IC50 is above 200 µM. Take `CCNc1nnc(-c2nsc3ccccc23)s1`: the EC50 is above 20 µM and the IC50 was above 20 µM. As to `COCOc1cc(OCOC)cc(C(=O)Oc2ccccc2)c1`, the EC50 is above 200 µM and the IC50 is above 200 µM. In the case of `CCCCCCc1cc2cc(-c3csc(-c4ccc(OC)cc4)n3)c(=O)oc2cc1O`, the EC50 is above 200 µM and the IC50 was found to be 9.12 µM. As for `N#C[C@@H](c1nc2ccccc2s1)c1ncccc1[N+](=O)[O-]`, the EC50 is above 200 µM and the IC50 was 20 µM. As for `CC12CC/C(=N/NC(N)=O)C3C1CCCC32`, the outcome was inactive. As to `CC(C)=CCC/C(C)=C/CC/C(C)=C/C(O)c1ccccc1` (centres undefined), the EC50 is above 50.1 µM and the IC50 was above 50.1 µM. Regarding `CCOC(CCNCC(OCC)OCC)OCC`, the EC50 was above 200 µM and the IC50 was above 200 µM.

For the compound `COc1ccc(N2C(=O)c3c(c4[nH]c5ccc(OC)cc5c4c4ccc(C(C)(C)C)cc34)C2=O)cc1`, the EC50 was above 11 µM and the IC50 was above 11 µM. As to `CC1(C)O[C@H]2OC(CO)C(OS(C)(=O)=O)[C@H]2O1` (some centres undefined), the EC50 is above 200 µM and the IC50 is above 200 µM. As for `CN(C)Cc1cc(C=O)cc(CN(C)C)c1O`, the EC50 was above 200 µM and the IC50 was above 200 µM.

Turning to `CCc1nn(Cc2ccccc2)c2nc(C)c(CCc3ccccc3)c(Cl)c12`, the EC50 is above 200 µM and the IC50 was above 200 µM.

Take `COc1ccc(C2Oc3cc(OC)c(OC)cc3C2CCl)cc1OC` (centres undefined): the EC50 is above 200 µM and the IC50 amounted to 107 µM. With `CC(C)CCCC(C)[C@H]1CCC2C3C/C(=C\C#N)[C@H]4CCCC[C@]4(C)C3CC[C@@]21C` (some centres undefined), the EC50 is above 100 µM and the IC50 is above 100 µM. In the case of `CC(C)CCCC(C)C1CCC2C3CC[C@H]4C[C@@H](NC(=O)C=C(c5cc(Cl)c(O)c(C(=O)O)c5)c5cc(Cl)c(O)c(C(=O)O)c5)CC[C@]4(C)C3CC[C@]12C` (some centres undefined), the EC50 is 56.2 µM and the IC50 was 97.7 µM. In the case of `CCOC(=O)c1sc(SSc2nc(C)c(C(=O)OCC)s2)nc1C`, the EC50 is above 200 µM and the IC50 is above 200 µM. Turning to `Nc1ccn(CC(=O)NCCCCO)c(=O)n1`, the EC50 is above 200 µM and the IC50 was above 200 µM.

For the compound `[N-]=[N+]=NCC(O)Cn1cnc2c(NC(=O)c3ccccc3)ncnc21` (centres undefined), the EC50 is above 741 µM and the concentration for half-maximal inhibition (IC50) came to 427 µM. As for `CCOC(=O)c1sc(SC)nc1NC(=O)c1ccccc1`, the EC50 is above 200 µM and the IC50 was above 200 µM. Turning to `Cn1c(=O)c2c(nc3n(Cc4ccccc4)c(=O)c(NCCCBr)cn23)n(C)c1=O`, the EC50 was 30.9 µM and the IC50 was determined as 41.7 µM.

For `COc1cccc(NC(=O)CSc2nnc(Cc3ccccc3)o2)c1`, the EC50 was above 100 µM and the 50% inhibitory concentration (IC50) was above 100 µM.

In the case of `COC(=O)[C@]12CSC[C@H]1C[C@H](c1ccc(N(C)C)cc1)N2`, the EC50 is above 200 µM and the IC50 is above 200 µM.

Regarding `Clc1ccccc1C(c1ccccc1)(c1ccccc1)n1ccnc1`, the EC50 was above 200 µM and the IC50 came out at 21.4 µM.

For `CCOC(=O)CCC(NC(=O)c1ccc(Nc2nc3ccccc3nc2C(=O)OCC)s1)C(=O)OCC` (centres undefined), the EC50 was above 200 µM and the IC50 is above 200 µM. Consider `COc1ccc(N=c2ssc(SC)c2-c2ccccc2)cc1`, for which the EC50 was above 200 µM and the IC50 amounted to 46.8 µM.

Regarding `O=C(NCCCCNCCCNC(=O)C(F)(F)F)C(F)(F)F`, the EC50 was above 200 µM and the IC50 was above 200 µM. Consider `c1ccc2oc(-c3ccc(-c4nc5ccccc5o4)c4c3CC4)nc2c1`, for which the EC50 was above 50.1 µM and the IC50 is above 50.1 µM. `O=C(CSc1c2ccccc2nc2ccccc12)Nc1ccccc1-c1ccccc1NC(=O)CSc1c2ccccc2nc2ccccc12`: the EC50 was above 1.91 µM and the IC50 was above 1.91 µM. Turning to `COC1NC(=O)Oc2c(F)cccc21` (centres undefined), the outcome was inactive. For the compound `COc1ccc([C@@H]2ON(C)[C@H]3CN(C)C(=O)[C@@H]23)cc1`, the EC50 is above 200 µM and the IC50 was above 200 µM.

As to `CCN(CC)/C(Sc1ccccc1)=C(\C(Cl)=C(Cl)Cl)[N+](=O)[O-]`, the EC50 was above 200 µM and the IC50 was determined as 12.3 µM. Consider `O=C(NCC(=O)N1CCCC1C(=O)OC(=O)C1CCCN1C(=O)CNC(=O)OCc1ccccc1)OCc1ccccc1` (centres undefined), for which the EC50 was above 38 µM and the IC50 was found to be 30.2 µM. Regarding `CC#N.CC#N.COC(=O)[C@@H]1CN(C(=O)CCc2ccccc2)C(=O)[N-]1.COC(=O)[C@@H]1CN(C(=O)CCc2ccccc2)C(=O)[N-]1.COC(=O)[C@@H]1CN(C(=O)CCc2ccccc2)C(=O)[N-]1.COC(=O)[C@@H]1CN(C(=O)CCc2ccccc2)C(=O)[N-]1.[Rh+2].[Rh+2]`, the EC50 is above 200 µM and the IC50 turned out to be 4.37 µM. For the compound `CCOC(=O)c1cc(C2(OC)CCN(Cc3ccccc3)C2=O)c(-c2cc(C)no2)[nH]1` (centres undefined), the EC50 was above 200 µM and the half-inhibitory concentration (IC50) worked out at 148 µM. For `Cc1ccc(/C=C2\CCCC(CN(C)C)C2=O)cc1` (centres undefined), the EC50 is above 200 µM and the IC50 was determined as 0.617 µM. Take `COC(=O)c1ccc(NC(=O)O/N=C(\Cl)C(C)C)cc1`: the EC50 is above 20 µM and the IC50 was 3.63 µM.

`Cc1cc(=O)n2nc(CSc3nnc(N)s3)sc2n1`: the EC50 is above 200 µM and the IC50 is above 200 µM. In the case of `O=C(CN1C(=O)c2cccc3c(Br)ccc(c23)C1=O)c1ccc(F)cc1`, the EC50 was above 200 µM and the IC50 is 52.5 µM. On to `CC(C)(C)[Si](C)(C)OCC1OC(n2ccc(=O)[nH]c2=O)C(OC(=S)Oc2ccccc2)C1O[Si](C)(C)C(C)(C)C` (centres undefined), for which the EC50 was above 200 µM and the IC50 turned out to be 2 µM. Regarding `Nc1nc2c(ncn2C2C=CC(O)CC2)c(=O)[nH]1` (centres undefined), the EC50 was above 55 µM and the IC50 is above 55 µM. `CC(C)CCC[C@@H](C)[C@H]1CC[C@H]2C3=C[C@H](OS(=O)(=O)O)[C@@]4(O)C[C@@H](O)CC[C@]4(C)[C@@]3(O)CC[C@]12C`: the EC50 is above 200 µM and the IC50 came out at 97.7 µM.

Regarding `COc1ccc(NC(=O)c2cc3cc(N=Nc4ccc(Br)cc4)ccc3oc2=O)cc1`, the outcome was inactive. With `COc1cc(C2C(C#N)=C(N)OC3=C2CCS(=O)(=O)c2ccc(C)cc23)cc(OC)c1OC` (centres undefined), the EC50 was above 200 µM and the IC50 was above 200 µM. Take `O=S1(=O)OCCCO1`: the EC50 was above 1820 µM and the IC50 is above 1820 µM. In the case of `O=C1OC(c2cccc(C(F)(F)F)c2)c2ccc3ccccc3c21` (centres undefined), the result was inactive. On to `CCOP(=O)(OCC)OP(=O)(OCC)OCC`, for which the EC50 was above 871 µM and the IC50 is above 871 µM. Take `CC1=C(C)C1[N+](=O)[O-]`: the EC50 is above 200 µM and the IC50 was above 200 µM. As to `CN(C)c1ccc(/C=C(\C#N)C(=O)c2ccccc2)cc1Br`, the EC50 is above 14.8 µM and the IC50 is above 14.8 µM. `O=C(O)[C@@H](NS(=O)(=O)c1ccc(F)cc1)c1ccccc1`: the outcome was inactive. With `CN(Nc1cc(=O)[nH]c(=O)[nH]1)c1ccccc1`, the EC50 is above 200 µM and the IC50 was above 200 µM.

With `CCCCCCCCCN1CCC(=O)C(C(=O)OC)C1` (centres undefined), the EC50 was above 200 µM and the IC50 was 4.68 µM. With `Cc1ccc(C(=O)N(C(C)C)C(C)C)cc1N=NN(C)C`, the EC50 was above 123 µM and the concentration for half-maximal inhibition (IC50) was determined as 97.7 µM.

In the case of `Cc1ccc2c(c1)C(=C(C#N)C#N)CCCS2(=O)=O`, the EC50 was above 200 µM and the IC50 was above 200 µM. For `C=CCOc1cc2c(c3oc(=O)cc(CCC)c13)[C@@H](O)[C@H](C)[C@@H](C)O2`, the EC50 was 6.61 µM and the IC50 was 13.5 µM.

With `COC(=O)[C@]1(C)CCC[C@]2(C)c3ccc(C(C)C)cc3C(=O)[C@@H](Br)[C@@H]12`, the EC50 was above 200 µM and the concentration for half-maximal inhibition (IC50) came to 8.51 µM. The like results for `C#CCN1C(=O)c2ccccc2S1(=O)=O.[C-]#[O+].[C-]#[O+].[C-]#[O+].[C-]#[O+].[C-]#[O+].[C-]#[O+].[Co].[Co]` were, in that order, above 200 µM and 7.08 µM. `COC1OC2COC(C)(C)OC2C(OC(C)=O)C1NC(=O)N(CCCl)N=O` (centres undefined): the EC50 is above 229 µM and the IC50 was above 229 µM. `Cc1ccc(Oc2ccc(C)cc2N)cc1`: the result was inactive.

Take `C/C(Cl)=N/OC(=O)Nc1ccc(S(N)(=O)=O)c(C)c1`: the EC50 is above 20 µM and the IC50 is 8.71 µM.

The values are drawn from PubChem BioAssay AID179 (DTP/NCI, 2004).
